Source: ChEMBL document CHEMBL1138055, “Tetraoxane antimalarials and their reaction with Fe(II)” (J Med Chem, 2006)
Several values for one entry are separate records, joined by “and”; a condition that tells them apart may be missing. Identical values can stand only once.

Assays:
Plasmodium falciparum [1] = experiment: microbe, parasite or virus in culture; details: TM91C235
Description: (§1) Antimalarial activity against Plasmodium falciparum TM91C235

Plasmodium falciparum [2] = experiment: microbe, parasite or virus in culture; details: W2
Description: (§2) Antimalarial activity against Plasmodium falciparum W2

Plasmodium falciparum [3] = experiment: microbe, parasite or virus in culture; details: D6
Description: (§3) Antimalarial activity against Plasmodium falciparum D6

Plasmodium falciparum [4] = tested on: Plasmodium falciparum
Description: as §2

Plasmodium falciparum [5] = tested on: Plasmodium falciparum; remark: listed apart in the source
Description: as §3

Plasmodium falciparum [6] = tested on: Plasmodium falciparum; remark: listed apart in the source
Description: as §1

EKVX = experiment: Antiproliferative activity against human EKVX cell line after 48 hrs; type: functional
Mus musculus [7] = experiment: Effect on survival of CD1 mice (Mus musculus) infected with Plasmodium berghei KBG173 at 200 mg/kg/day, perorally; type: functional; details: route oral
UO-31 = experiment: Antiproliferative activity against human UO31 cell line after 48 hrs; type: functional; details: for CC50: read-out: LC50 (the source's name)
Mus musculus [8] = experiment: Effect on survival of CD1 mice (Mus musculus) infected with Plasmodium berghei KBG173 at 600 mg/kg/day, perorally; type: functional, organism-based; parameters: route oral; details: route oral
HOP-62 = experiment: Antiproliferative activity against human HOP62 cell line after 48 hrs; type: functional; details: for CC50: read-out: LC50 (the source's name)
COLO 205 = experiment: Antiproliferative activity against human COLO 205 cell line after 48 hrs; type: functional; details: for CC50: read-out: LC50 (the source's name)
IGROV-1 = experiment: Antiproliferative activity against human IGROV1 cell line after 48 hrs; type: functional; details: for CC50: read-out: LC50 (the source's name)
Mus musculus [9] = experiment: Effect on survival of CD1 mice (Mus musculus) infected with Plasmodium berghei KBG173 at 50 mg/kg/day, perorally; type: functional; details: route oral
SR = experiment: Antiproliferative activity against human SR cell line after 48 hrs; type: functional
ACHN = experiment: Antiproliferative activity against human ACHN cell line after 48 hrs; type: functional
U-251 = experiment: Antiproliferative activity against human U251 cell line after 48 hrs; type: functional; details: U-251, 48 h
[10] = read-out: LC50 (the source's name)

Structure (SMILES): CC(=O)O[C@H]1C[C@H]2[C@@H]([C@H](OC(C)=O)C[C@@H]3CC4(CC[C@@]32C)OOC2(CCC(C(=O)NCCN(C)C)CC2)OO4)[C@@H]2CC[C@H]([C@H](C)CCC(=O)NCCN(C)C)[C@@]12C (stereo in doubt; 12)
- IC50 (Plasmodium falciparum [1]): 0.145 µM
- IC90 (Plasmodium falciparum [1]): 0.16 µM
- IC50 (Plasmodium falciparum [2]): 0.132 µM
- IC90 (Plasmodium falciparum [2]): 0.167 µM
- IC50 (Plasmodium falciparum [3]): 0.128 µM
- IC90 (Plasmodium falciparum [3]): 0.187 µM

Structure (SMILES): CC(=O)O[C@H]1C[C@H]2[C@@H]([C@H](OC(C)=O)C[C@@H]3CC4(CC[C@@]32C)OOC2(CCC(C(=O)O)CC2)OO4)[C@@H]2CC[C@H]([C@H](C)CCC(=O)O)[C@@]12C (stereo in doubt; 6b)
- IC50 (Plasmodium falciparum [4]): > 0.3 µM
- IC50 (Plasmodium falciparum [5]): > 0.3 µM
- IC90 (Plasmodium falciparum [5]): > 0.3 µM
- IC90 (Plasmodium falciparum [1]): > 0.3 µM
- IC90 (Plasmodium falciparum [2]): > 0.3 µM
- IC50 (Plasmodium falciparum [6]): > 0.3 µM

Structure (SMILES): CC(=O)O[C@H]1C[C@H]2[C@@H]([C@H](OC(C)=O)C[C@@H]3CC4(CC[C@@]32C)OOC2(CCC(C)CC2)OO4)[C@@H]2CC[C@H]([C@H](C)CCC(=O)O)[C@@]12C (stereo in doubt; 18)
- GI50 (EKVX; Homo sapiens, EKVX, 48 h): 1.45 µM
- LC50 (EKVX; Homo sapiens, EKVX, 48 h): 5.78 µM
- TGI (EKVX; Homo sapiens, EKVX, 48 h): 2.9 µM
- Activity (Mus musculus [7]): 22.6 days
- IC50 (Plasmodium falciparum [4]): 0.0177 µM
- GI50 (UO-31; Homo sapiens, UO-31, 48 h): 1.5 µM
- TGI (UO-31; Homo sapiens, UO-31, 48 h): 3 µM
- CC50 (UO-31; Homo sapiens, UO-31, 48 h): 6.02 µM
- Activity (Mus musculus [8]): 20 days
- GI50 (HOP-62; Homo sapiens, HOP-62, 48 h): 1.64 µM
- TGI (HOP-62; Homo sapiens, HOP-62, 48 h): 3.49 µM
- CC50 (HOP-62; Homo sapiens, HOP-62, 48 h): 7.4 µM
- IC50 (Plasmodium falciparum [5]): 0.0311 µM
- GI50 (COLO 205; Homo sapiens, COLO 205, 48 h): 1.98 µM
- TGI (COLO 205; Homo sapiens, COLO 205, 48 h): 4.4 µM
- CC50 (COLO 205; Homo sapiens, COLO 205, 48 h): 9.78 µM
- GI50 (IGROV-1; Homo sapiens, IGROV-1, 48 h): 1.4 µM
- TGI (IGROV-1; Homo sapiens, IGROV-1, 48 h): 2.76 µM
- CC50 (IGROV-1; Homo sapiens, IGROV-1, 48 h): 5.43 µM
- Activity (Mus musculus [9]): 10.2 days

Structure (SMILES): C[C@@H]1CC[C@H]2[C@@H](C)C(=O)O[C@@H]3O[C@@]4(C)CC[C@@H]1[C@]32OO4 [ARTEMISININ]
- IC50 (Plasmodium falciparum [1]): 0.013 µM
- IC90 (Plasmodium falciparum [1]): 0.0174 µM
- IC50 (Plasmodium falciparum [2]): 0.0067 µM
- IC90 (Plasmodium falciparum [2]): 0.0115 µM
- IC50 (Plasmodium falciparum [3]): 0.009 µM
- IC90 (Plasmodium falciparum [3]): 0.0128 µM

Structure (SMILES): CC(=O)O[C@H]1C[C@H]2[C@@H]([C@H](OC(C)=O)C[C@@H]3CC4(CC[C@@]32C)OOC2(CCC(C(=O)Nc3ccccc3)CC2)OO4)[C@@H]2CC[C@H]([C@H](C)CCC(=O)Nc3ccccc3)[C@@]12C (stereo in doubt; 14)
- IC50 (Plasmodium falciparum [4]): 0.0529 µM
- IC90 (Plasmodium falciparum [4]): 0.0742 µM
- IC50 (Plasmodium falciparum [5]): 0.0296 µM
- IC90 (Plasmodium falciparum [5]): 0.0445 µM
- IC50 (Plasmodium falciparum [6]): 0.0428 µM
- IC90 (Plasmodium falciparum [6]): 0.0866 µM

Structure (SMILES): CC(=O)O[C@H]1C[C@H]2[C@@H]([C@H](OC(C)=O)C[C@@H]3CC4(CC[C@@]32C)OOC2(CCC(C)CC2)OO4)[C@@H]2CC[C@H]([C@H](C)CCC(=O)O)[C@@]12C (stereo in doubt; 16)
- Activity (Mus musculus [7]): 24.8 days
- IC50 (Plasmodium falciparum [4]): 0.00098 µM
- Activity (Mus musculus [8]): 29 days
- IC50 (Plasmodium falciparum [5]): 0.00153 µM
- GI50 (SR): 1.63 µM
- TGI (SR): 3.82 µM
- CC50 (SR; [10]): 8.92 µM
- Activity (Mus musculus [9]): 12.2 days

Structure (SMILES): CC(=O)O[C@H]1C[C@H]2[C@@H]([C@H](OC(C)=O)C[C@@H]3CC4(CC[C@@]32C)OOC2(CCC(C)CC2)OO4)[C@@H]2CC[C@H]([C@H](C)CCC(N)=O)[C@@]12C (stereo in doubt; 15)
- LC50 (ACHN): 1.8 µM and 8.35 µM
- TGI (ACHN): 3.88 µM
- GI50 (EKVX): 1.01 µM
- LC50 (EKVX): 5.49 µM
- TGI (EKVX): 2.35 µM
- Activity (Mus musculus [7]): 27.2 days
- TGI (UO-31): 3.08 µM
- CC50 (UO-31): 6.11 µM
- Activity (Mus musculus [8]): 29.2 days
- GI50 (HOP-62): 1.47 µM
- TGI (HOP-62): 2.96 µM
- CC50 (HOP-62): 5.96 µM
- TGI (COLO 205): 3.19 µM
- CC50 (COLO 205): 6.52 µM
- GI50 (U-251): 1.78 µM
- TGI (U-251): 3.78 µM
- CC50 (U-251; [10]): 8.06 µM
- GI50 (IGROV-1): 1.54 µM
- TGI (IGROV-1): 3.07 µM
- CC50 (IGROV-1): 6.14 µM
- Activity (Mus musculus [9]): 21.4 days
